The values that follow are results of earlier work, collected in article PMC5762859, “Distribution analysis of epertinib in brain metastasis of HER2-positive breast cancer by imaging mass spectrometry and prospect for antitumor activity” (Scientific Reports, 2018).

For series [1] the following is noted: healthy volunteers, single oral 250 mg [14C]-lapatinib; cited from earlier work.
Series [2] deals with T1, P-glycoprotein (P-gp) (Homo sapiens, UniProt P08183).
T1 construct: permeability and efflux ratio of epertinib across Caco-2 cell monolayers; endogenous in cells; host or cells: Caco-2
T1 sequence (P08183 whole entry): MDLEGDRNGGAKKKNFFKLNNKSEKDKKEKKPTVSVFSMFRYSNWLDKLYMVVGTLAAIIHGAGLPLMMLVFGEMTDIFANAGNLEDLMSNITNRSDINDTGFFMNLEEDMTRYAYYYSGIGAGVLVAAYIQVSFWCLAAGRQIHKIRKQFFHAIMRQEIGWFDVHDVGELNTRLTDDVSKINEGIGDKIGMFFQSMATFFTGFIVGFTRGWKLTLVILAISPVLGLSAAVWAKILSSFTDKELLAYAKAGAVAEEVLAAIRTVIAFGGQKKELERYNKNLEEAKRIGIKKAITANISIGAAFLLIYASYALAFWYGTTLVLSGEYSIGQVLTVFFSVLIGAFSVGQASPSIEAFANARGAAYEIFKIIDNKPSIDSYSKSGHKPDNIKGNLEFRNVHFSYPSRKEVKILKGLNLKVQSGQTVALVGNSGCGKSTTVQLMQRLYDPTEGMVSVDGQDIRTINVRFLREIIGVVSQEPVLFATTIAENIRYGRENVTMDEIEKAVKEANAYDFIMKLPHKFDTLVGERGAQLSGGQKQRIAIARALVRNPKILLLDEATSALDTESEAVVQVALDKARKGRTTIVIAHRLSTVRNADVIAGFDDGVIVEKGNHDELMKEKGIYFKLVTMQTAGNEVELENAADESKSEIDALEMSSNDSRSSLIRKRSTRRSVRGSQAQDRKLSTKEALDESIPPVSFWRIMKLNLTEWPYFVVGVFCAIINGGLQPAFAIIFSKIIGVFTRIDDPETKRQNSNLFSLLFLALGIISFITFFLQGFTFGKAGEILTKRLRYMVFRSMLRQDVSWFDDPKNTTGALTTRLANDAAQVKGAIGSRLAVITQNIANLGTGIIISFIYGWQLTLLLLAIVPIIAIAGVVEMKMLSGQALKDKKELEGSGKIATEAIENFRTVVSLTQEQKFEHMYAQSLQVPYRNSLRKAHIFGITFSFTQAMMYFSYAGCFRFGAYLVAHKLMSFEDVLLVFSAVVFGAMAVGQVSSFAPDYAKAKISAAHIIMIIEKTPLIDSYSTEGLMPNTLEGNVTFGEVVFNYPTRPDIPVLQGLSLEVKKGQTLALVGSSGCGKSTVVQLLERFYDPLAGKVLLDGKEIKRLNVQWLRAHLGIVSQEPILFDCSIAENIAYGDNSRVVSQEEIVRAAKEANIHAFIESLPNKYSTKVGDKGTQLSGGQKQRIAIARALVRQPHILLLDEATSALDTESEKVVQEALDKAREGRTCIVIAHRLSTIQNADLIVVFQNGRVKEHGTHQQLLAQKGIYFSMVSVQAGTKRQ
Conditions: cited from earlier work.

Series [3] deals with T2, breast cancer resistance protein (BCRP) (Homo sapiens, UniProt Q9UNQ0).
T2 construct: permeability and efflux ratio of epertinib across Caco-2 cell monolayers; endogenous in cells; host or cells: Caco-2
T2 sequence (Q9UNQ0 1-655): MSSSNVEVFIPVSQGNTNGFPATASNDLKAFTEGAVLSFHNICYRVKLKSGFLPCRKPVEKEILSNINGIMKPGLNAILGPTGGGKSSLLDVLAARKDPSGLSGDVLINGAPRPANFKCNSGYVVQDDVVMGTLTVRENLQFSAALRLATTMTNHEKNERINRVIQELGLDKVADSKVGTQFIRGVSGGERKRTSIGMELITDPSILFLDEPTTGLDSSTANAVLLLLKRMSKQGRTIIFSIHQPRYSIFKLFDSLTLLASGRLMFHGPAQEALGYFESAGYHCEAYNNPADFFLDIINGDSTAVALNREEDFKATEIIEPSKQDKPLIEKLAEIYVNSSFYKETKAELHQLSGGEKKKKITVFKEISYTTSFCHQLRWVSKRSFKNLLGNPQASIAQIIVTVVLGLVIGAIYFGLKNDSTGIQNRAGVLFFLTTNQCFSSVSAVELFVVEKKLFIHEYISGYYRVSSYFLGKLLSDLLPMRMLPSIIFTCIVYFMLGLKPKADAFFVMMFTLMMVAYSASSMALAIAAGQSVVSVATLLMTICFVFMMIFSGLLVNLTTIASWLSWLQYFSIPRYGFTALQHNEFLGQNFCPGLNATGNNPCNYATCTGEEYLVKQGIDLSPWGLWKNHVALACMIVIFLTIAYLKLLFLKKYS
Conditions: cited from earlier work.

Series [4] relates to HER2-positive metastatic breast cancer patients. Conditions: historical data, combination with trastzumab; cited from earlier work.

In the case of `CS(=O)(=O)CCNCc1ccc(-c2ccc3ncn[14c](Nc4ccc(OCc5cccc(F)c5)c(Cl)c4)c3c2)o1.Cc1ccc(S(=O)(=O)O)cc1.O` [[^14C]-lapatinib], the “Mean plasma concentration of total radioactivity at Cmax” value in series [1] is reported as 720 ng eq./mL.

On to `CN(C)C/C=C/C(=O)Nc1cc2c(Nc3ccc(F)c(Cl)c3)ncnc2cc1O[C@H]1CCOC1` [afatinib], for which the P-gp substrate entry in series [2] is on record as “substrates”. For the same molecule, the BCRP substrate result in series [3] was “substrates”.

Consider `CCOc1cc2ncc(C#N)c(Nc3ccc(OCc4ccccn4)c(Cl)c3)c2cc1NC(=O)/C=C/CN(C)C` [neratinib], for which the P-gp substrate entry in series [2] is recorded as “substrates”. In series [3], the BCRP substrate entry is “substrates”.

Take `Cc1cc(Nc2ncnc3ccc(NC4=NC(C)(C)CO4)cc23)ccc1Oc1ccn2ncnc2c1` [tucatinib]: in series [2], the P-gp substrate entry is listed as “substrates”. Further, the BCRP substrate entry in series [3] was “substrates”. In series [4], the “Objective response rate (ORR)” value was 26%.
